Measurements as given in PubChem BioAssay (NCI).
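Grown in 96-well plates, cells were treated for 48 hours with each compound at five concentrations. Insufficient inhibition: endpoint recorded as highest concentration tested. GI50 = concentration required for 50% inhibition of growth. TGI marks complete inhibition of growth.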

What was measured:
Assay in all cases: DTP human tumour cell line panel, 48 h
786-0 renal = test system: 786-0 renal
A549 NSCLC = test system: A549 NSCLC
ACHN renal = test system: ACHN renal
BT-549 breast = test system: BT-549 breast
CCRF-CEM leukemia = test system: CCRF-CEM leukemia
COLO 205 colon = test system: COLO 205 colon
DU-145 prostate = test system: DU-145 prostate
HCC-2998 colon = test system: HCC-2998 colon
HCT-116 colon = test system: HCT-116 colon
HCT-15 colon = test system: HCT-15 colon
HL-60(TB) leukemia = test system: HL-60(TB) leukemia
HOP-62 NSCLC = test system: HOP-62 NSCLC
HOP-92 NSCLC = test system: HOP-92 NSCLC
HS 578T breast = test system: HS 578T breast
HT29 colon = test system: HT29 colon
IGROV1 ovarian = test system: IGROV1 ovarian
K-562 leukemia = test system: K-562 leukemia
KM12 colon = test system: KM12 colon
M14 melanoma = test system: M14 melanoma
MALME-3M melanoma = test system: MALME-3M melanoma
MCF7 breast = test system: MCF7 breast
MDA-MB-231 breast = test system: MDA-MB-231 breast
MDA-MB-435 = test system: MDA-MB-435
MOLT-4 leukemia = test system: MOLT-4 leukemia
NCI-H226 lung = test system: NCI-H226 lung
NCI-H23 lung = test system: NCI-H23 lung
NCI-H460 lung = test system: NCI-H460 lung
NCI-H522 lung = test system: NCI-H522 lung
NCI/ADR-RES ovarian = test system: NCI/ADR-RES ovarian
OVCAR-3 ovarian = test system: OVCAR-3 ovarian
OVCAR-4 ovarian = test system: OVCAR-4 ovarian
OVCAR-5 ovarian = test system: OVCAR-5 ovarian
OVCAR-8 ovarian = test system: OVCAR-8 ovarian
PC-3 prostate = test system: PC-3 prostate
RPMI-8226 leukemia = test system: RPMI-8226 leukemia
RXF 393 renal = test system: RXF 393 renal
SF-268 CNS = test system: SF-268 CNS
SF-295 CNS = test system: SF-295 CNS
SF-539 CNS = test system: SF-539 CNS
SK-MEL-28 melanoma = test system: SK-MEL-28 melanoma
SK-MEL-5 melanoma = test system: SK-MEL-5 melanoma
SK-OV-3 ovarian = test system: SK-OV-3 ovarian
SN12C renal = test system: SN12C renal
SNB-19 CNS = test system: SNB-19 CNS
SNB-75 CNS = test system: SNB-75 CNS
SR leukemia = test system: SR leukemia
SW-620 colon = test system: SW-620 colon
T-47D breast = test system: T-47D breast
TK-10 renal = test system: TK-10 renal
U251 CNS = test system: U251 CNS
UACC-257 melanoma = test system: UACC-257 melanoma
UACC-62 melanoma = test system: UACC-62 melanoma
CAKI-1 renal = test system: CAKI-1 renal
EKVX NSCLC = test system: EKVX NSCLC
LOX IMVI melanoma = test system: LOX IMVI melanoma
SK-MEL-2 melanoma = test system: SK-MEL-2 melanoma
UO-31 renal = test system: UO-31 renal

O=c1cc(-c2ccccc2)[nH]c2ccc(S)cc12
TGI (786-0 renal): > 100 µM | TGI (A549 NSCLC): > 100 µM | TGI (ACHN renal): 99.7 µM | TGI (BT-549 breast): 55.2 µM | TGI (CCRF-CEM leukemia): > 100 µM | TGI (COLO 205 colon): > 100 µM | TGI (DU-145 prostate): > 100 µM | TGI (HCC-2998 colon): 51.9 µM | TGI (HCT-116 colon): 66.9 µM | TGI (HCT-15 colon): 48 µM | TGI (HL-60(TB) leukemia): > 100 µM | TGI (HOP-62 NSCLC): > 100 µM | TGI (HOP-92 NSCLC): 91.5 µM | TGI (HS 578T breast): > 100 µM | TGI (HT29 colon): 93.1 µM | TGI (IGROV1 ovarian): > 100 µM | TGI (K-562 leukemia): > 100 µM | TGI (KM12 colon): > 100 µM | TGI (M14 melanoma): 84.8 µM | TGI (MALME-3M melanoma): 57.7 µM | TGI (MCF7 breast): > 100 µM | TGI (MDA-MB-231 breast): > 100 µM | TGI (MDA-MB-435): 45.4 µM | TGI (MOLT-4 leukemia): 39.8 µM | TGI (NCI-H226 lung): 81.9 µM | TGI (NCI-H23 lung): > 100 µM | TGI (NCI-H460 lung): > 100 µM | TGI (NCI-H522 lung): 64.5 µM | TGI (NCI/ADR-RES ovarian): 56.3 µM | TGI (OVCAR-3 ovarian): > 100 µM | TGI (OVCAR-4 ovarian): > 100 µM | TGI (OVCAR-5 ovarian): > 100 µM | TGI (OVCAR-8 ovarian): > 100 µM | TGI (PC-3 prostate): > 100 µM | TGI (RPMI-8226 leukemia): > 100 µM | TGI (RXF 393 renal): 68.2 µM | TGI (SF-268 CNS): > 100 µM | TGI (SF-295 CNS): > 100 µM | TGI (SF-539 CNS): > 100 µM | TGI (SK-MEL-28 melanoma): 64.6 µM | TGI (SK-MEL-5 melanoma): 29.5 µM | TGI (SK-OV-3 ovarian): > 100 µM | TGI (SN12C renal): 37 µM | TGI (SNB-19 CNS): > 100 µM | TGI (SNB-75 CNS): 76.1 µM | TGI (SR leukemia): > 100 µM | TGI (SW-620 colon): > 100 µM | TGI (T-47D breast): 68 µM | TGI (TK-10 renal): 79.6 µM | TGI (U251 CNS): > 100 µM | TGI (UACC-257 melanoma): > 100 µM | TGI (UACC-62 melanoma): > 100 µM

N#CC1=C(N)NC(=S)NC1c1ccc(-c2ccc(-c3nc4ccccc4o3)cc2)s1 (configuration not stated)
GI50 (786-0 renal): 11.1 µM | TGI (786-0 renal): 22.4 µM | GI50 (A549 NSCLC): 9 µM | TGI (A549 NSCLC): 20.2 µM | GI50 (ACHN renal): 6.54 µM | TGI (ACHN renal): 12.9 µM | GI50 (BT-549 breast): 17.5 µM | TGI (BT-549 breast): 47.6 µM | GI50 (CAKI-1 renal): 10.1 µM | TGI (CAKI-1 renal): 36.4 µM | GI50 (COLO 205 colon): 11.3 µM | TGI (COLO 205 colon): 33.4 µM | GI50 (DU-145 prostate): 17.6 µM | TGI (DU-145 prostate): > 50 µM | GI50 (EKVX NSCLC): 14 µM | TGI (EKVX NSCLC): 48.2 µM | GI50 (HCT-116 colon): 7.71 µM | TGI (HCT-116 colon): 14.4 µM | GI50 (HCT-15 colon): 12.3 µM | TGI (HCT-15 colon): > 50 µM | GI50 (HL-60(TB) leukemia): 24.1 µM | TGI (HL-60(TB) leukemia): > 50 µM | GI50 (HOP-62 NSCLC): 9.33 µM | TGI (HOP-62 NSCLC): 20.1 µM | GI50 (HOP-92 NSCLC): 9.84 µM | TGI (HOP-92 NSCLC): > 50 µM | GI50 (HS 578T breast): 16.1 µM | TGI (HS 578T breast): 45.1 µM | GI50 (IGROV1 ovarian): 2.21 µM | TGI (IGROV1 ovarian): 12.7 µM | GI50 (K-562 leukemia): 4.7 µM | TGI (K-562 leukemia): 15.5 µM | GI50 (KM12 colon): 15.1 µM | TGI (KM12 colon): > 50 µM | GI50 (LOX IMVI melanoma): 9.58 µM | TGI (LOX IMVI melanoma): 21.4 µM | GI50 (M14 melanoma): 12.6 µM | TGI (M14 melanoma): 30.3 µM | GI50 (MCF7 breast): 6.7 µM | TGI (MCF7 breast): 19.2 µM | GI50 (MDA-MB-231 breast): 7.16 µM | TGI (MDA-MB-231 breast): 16.4 µM | GI50 (MDA-MB-435): 16.5 µM | TGI (MDA-MB-435): 48.5 µM | GI50 (NCI-H23 lung): 12 µM | TGI (NCI-H23 lung): 27.4 µM | GI50 (NCI-H460 lung): 7.58 µM | TGI (NCI-H460 lung): 15.9 µM | GI50 (NCI-H522 lung): 9.65 µM | TGI (NCI-H522 lung): 20.8 µM | GI50 (NCI/ADR-RES ovarian): 12.1 µM | TGI (NCI/ADR-RES ovarian): 30.1 µM | GI50 (OVCAR-3 ovarian): 10.7 µM | TGI (OVCAR-3 ovarian): 37.2 µM | GI50 (OVCAR-5 ovarian): 16 µM | TGI (OVCAR-5 ovarian): 34.6 µM | GI50 (OVCAR-8 ovarian): 10.1 µM | TGI (OVCAR-8 ovarian): 22.4 µM | GI50 (PC-3 prostate): 9.78 µM | TGI (PC-3 prostate): > 50 µM | GI50 (RPMI-8226 leukemia): 16 µM | TGI (RPMI-8226 leukemia): > 50 µM | GI50 (SF-268 CNS): 10.7 µM | TGI (SF-268 CNS): 26.5 µM | GI50 (SF-295 CNS): 13.3 µM | TGI (SF-295 CNS): 38.8 µM | GI50 (SK-MEL-2 melanoma): 9.2 µM | TGI (SK-MEL-2 melanoma): 28.8 µM | GI50 (SK-MEL-5 melanoma): 9.14 µM | TGI (SK-MEL-5 melanoma): 18.3 µM | GI50 (SK-OV-3 ovarian): 11 µM | TGI (SK-OV-3 ovarian): 31 µM | GI50 (SN12C renal): 10.6 µM | TGI (SN12C renal): 28.4 µM | GI50 (SNB-19 CNS): 13.3 µM | TGI (SNB-19 CNS): > 50 µM | GI50 (SW-620 colon): 21.3 µM | TGI (SW-620 colon): > 50 µM | GI50 (T-47D breast): 15.4 µM | TGI (T-47D breast): > 50 µM | GI50 (TK-10 renal): 18.6 µM | TGI (TK-10 renal): > 50 µM | GI50 (U251 CNS): 7.73 µM | TGI (U251 CNS): 14.4 µM | GI50 (UACC-257 melanoma): 11.2 µM | TGI (UACC-257 melanoma): 26.8 µM | GI50 (UACC-62 melanoma): 9.2 µM | TGI (UACC-62 melanoma): 21.3 µM | GI50 (UO-31 renal): 7.89 µM | TGI (UO-31 renal): 17 µM
